# Measured values taken from patent US5017584A, “Antidepressant 2-(4,5-dihydro-1H-imidazolyl)-dihydro-1H-indoles, -1,2,3,4-tetrahydroquinolines and -1H-indoles, and methods of use thereas” (Sterling Drug Inc., priority 1985, dated 1991).
# “And” between values parts separate entries of the source, which are not always exact repeats. Equal values may be shown once. Read-outs that look alike come from different tables or passages of the source.
# What was measured:
# mice = assay: In Vivo Antagonism of Clonidine-Induced Anti-Nociception (phenyl-p-quinone writhing); details: Mus musculus; for ED50: read-out: ED50, Antagonism of Clonidine Analgesia; for responders at 3 mg/kg: 3 mg/kg s.c.
# Method: (§1) The α2 -adrenergic antagonist activity of the compounds of the invention was determined by three screening methods, described as follows:
# In Vivo Antagonism of Clonidine-Induced Anti-Nociception
# The intraperitoneal administration of phenyl-p-quinone (PPQ) to mice elicits a nociceptive response which consists of abdominal writhing and extension of the hind limbs. This writhing response is prevented in mice pretreated with clonidine. […] To groups of thirty male mice for each experiment, the test compound dissolved in 0.9% sodium chloride was administered either subcutaneously or orally. […] The number of mice that writhed at least three times during the five minute observation period was counted. The number of mice that writhed was scored for each dose of antagonist, and the percentage reversal of clonidine-induced anti-nociception (analgesia) was calculated by dividing the number of animals writhing by the total number of test animals and multiplying the quotient by 100. The results are also expressed as an ED50, the effective dose (in mg./kg.) in 50% of the animals to effect antagonism of clonidine-induced analgesia.
# [1] = molecular target: T1, isolated, electrically stimulated rat vas deferens (Rattus norvegicus, UniProt P22909); assay: Vas Deferens Assay: antagonism of clonidine-induced inhibition of twitch height in isolated, electrically stimulated rat vas deferens; details: for inhibition at 0.5 µM: 500 nM; for Twitch height: reversal by yohimbine
# T1 construct: isolated, electrically stimulated rat vas deferens; from tissue; host or cells: isolated rat vas deferens
# T1 sequence (P22909 1-465): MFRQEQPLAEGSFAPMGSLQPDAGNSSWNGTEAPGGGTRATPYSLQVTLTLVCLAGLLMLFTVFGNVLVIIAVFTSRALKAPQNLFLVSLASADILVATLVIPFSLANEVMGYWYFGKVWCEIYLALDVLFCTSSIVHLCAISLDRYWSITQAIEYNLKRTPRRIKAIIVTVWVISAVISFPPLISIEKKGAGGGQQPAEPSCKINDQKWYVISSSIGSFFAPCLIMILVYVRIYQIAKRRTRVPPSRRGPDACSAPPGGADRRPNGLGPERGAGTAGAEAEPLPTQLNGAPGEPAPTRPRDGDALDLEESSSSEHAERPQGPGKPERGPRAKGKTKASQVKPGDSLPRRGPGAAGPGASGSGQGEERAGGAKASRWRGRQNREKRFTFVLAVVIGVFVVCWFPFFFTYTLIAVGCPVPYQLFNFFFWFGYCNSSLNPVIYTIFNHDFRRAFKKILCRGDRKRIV
# Method: as §1
# Results are expressed either in terms of percent inhibition at the concentration of antagonist used or as pA2 values, determined by the Schild method; cf. Tallarida and Murray, Manual of Pharmacologic Calculations, pp. 29-32 (Springer-Verlag, 1981). The pA2 value is the negative logarithms of the concentration of antagonist required to cause a two-fold shift in the dose response curve to clonidine-induced inhibition of twitch height.
# [2] = phenylquinone writing test; cited from earlier work
# [3] = cited from earlier work
# α2-adrenergic receptor = molecular target: T2, α2-adrenergic receptor (Rattus norvegicus, UniProt P22909); assay: Tritiated Clonidine Receptor Binding Assay (inhibition of 3H-clonidine binding to rat cerebral cortex membranes); details: for Ki: 0.4 nM 3H-clonidine, rat cerebral cortex membranes; for inhibition at 1 µM: read-out: % I, Clonidine [3H] Binding, 1000 nM
# T2 construct: Homogenates of rat cerebral cortex; from tissue; host or cells: rat cerebral cortex homogenate (membranes)
# T2 sequence (P22909 1-465): T1 sequence (P22909 1-465)
# Method: as §1
# The results are expressed either in terms of percent inhibition at the concentration of antagonist used or as Ki values.
# [4] = sc, read-out: % A, Antagonism of Clonidine Analgesia, 1 mg/kg s.c.
# [5] = sc, read-out: % A, Antagonism of Clonidine Analgesia
# [6] = sc, read-out: % A, Antagonism of Clonidine Analgesia, 10 mg/kg s.c.
# [7] = po, read-out: % A, Antagonism of Clonidine Analgesia, 10 mg/kg p.o.
# [8] = po, read-out: % A, Antagonism of Clonidine Analgesia, 30 mg/kg p.o.
# [9] = rat, 100 nM, read-out: % A, rat vas deferens
# [10] = rat, read-out: % A, rat vas deferens
# [11] = read-out: pA2, rat vas deferens (converted)
# [12] = sc, read-out: % A, Antagonism of Clonidine Analgesia, 30 mg/kg s.c.
# [13] = rat, read-out: % A, rat vas deferens, 100 nM
smiles,measurement,setting,value
C[C@H]1c2ccccc2N(C)[C@@H]1C1=NCCN1 (relative stereo) [Example 1T],ED50,"mice; po, p.o.",41 mg/kg
same,Kb,[1],110 nM
C[C@@H]1c2ccccc2N(C)[C@@H]1C1=NCCN1 (relative stereo) [Example 1Z],responders at 0.1 mg/kg,"mice; sc, read-out: % A, Antagonism of Clonidine Analgesia, 0.1 mg/kg s.c.",80%
same,responders at 0.3 mg/kg,"mice; sc, read-out: % A, Antagonism of Clonidine Analgesia, 0.3 mg/kg s.c.",70%
same,responders at 1 mg/kg,mice; [4],30%
same,responders at 3 mg/kg,mice; [5],0%
same,responders at 10 mg/kg,mice; [6],0%
same,"agonist activity, rat vas deferens",[1]; as agonist,active
same,"antagonist activity, rat vas deferens",[1]; as antagonist,Inac.
"c1ccc2c(c1)CCN2C1=NCCN1 [1-(4,5-dihydro-1H-imidazol-2-yl)-2,3-dihydro-1H-indole]",analgesic activity,[2],active
same,"analeptic activity, antagonism of chloral hydrate",[3]; chloral hydrate,inactive
same,"analeptic activity, antagonism of pentobarbital",[3]; pentobarbital,active
"CN1c2ccc(F)cc2CC1C1=NCCN1 (centres unmarked) [Example 1A, 2-(4,5-dihydro-1H-imidazol-2-yl)-5-fluoro-2,3-dihydro-1-methyl-1H-indole]",Ki,α2-adrenergic receptor,0.92 nM
same,ED50,"mice; po, p.o.",0.75 mg/kg
same,ED50,"mice; sc, s.c.",0.0071 mg/kg
same,Kb,[1],3.55 nM
COCC1(C2=NCCN2)Cc2ccccc2N1C (centres unmarked) [Example 1AA],"% I, Clonidine [3H] Binding",α2-adrenergic receptor; concentration not given,43.5%
same,responders at 1 mg/kg,"mice; po, read-out: % A, Antagonism of Clonidine Analgesia, 1 mg/kg p.o.",0%
same,responders at 10 mg/kg,mice; [7],10%
same,responders at 30 mg/kg,mice; [8],70%
same,ED50,"mice; po, p.o.",21.8 mg/kg
same,ED50,"mice; sc, s.c.",2.6 mg/kg
same,"% A, rat vas deferens","[1]; 100 nM, 0.1 µM",7%
same,inhibition at 0.1 µM,[1]; [9],6%
same,inhibition at 0.5 µM,[1]; [10],52%
same,inhibition at 0.5 µM,"[1]; rat, read-out: reduced twitch height",67%
CSCC1(C2=NCCN2)Cc2ccccc2N1C (centres unmarked) [Example 1AB],responders at 10 mg/kg,mice; [7],0%
same,responders at 30 mg/kg,mice; [8],90%
same,Twitch height,[1],reversed by yohimbine
CC(C)N(CC1(C2=NCCN2)Cc2ccccc2N1C)C(C)C (centres unmarked) [Example 1AC],responders at 10 mg/kg,mice; [7],50%
same,responders at 30 mg/kg,mice; [8],50%
same,Twitch height,[1],reversed by yohimbine
CCN1CCN=C1C1C(C)c2ccccc2N1C (centres unmarked) [Example 1AD],fold shift of clonidine,[1]; 20 μm,3.5 fold
CC1c2ccccc2N(C)C1CC1=NCCN1 (centres unmarked) [Example 1AE],fold shift of clonidine,[1]; 20 μm,15 fold
C=C1c2ccccc2N(C)C1(C)C1=NCCN1 (centres unmarked) [Example 1AF],fold shift of clonidine,[1]; 10 μm,23.9 fold
COc1c(C2=NCCN2)n(C)c2ccccc12 [Example 1AG],fold shift of clonidine,[1]; 10 μm,3.9 fold
CN1c2ccccc2CC1C1=NCCN1 (centres unmarked) [Example 1B],Ki,α2-adrenergic receptor,0.46 nM
same,ED50,"mice; sc, s.c.",12 mg/kg
same,Kb,[1],3.31 nM
CCN1c2ccccc2CC1C1=NCCN1 (centres unmarked) [Example 1C],Ki,α2-adrenergic receptor,0.91 nM
same,ED50,"mice; po, p.o.",0.098 mg/kg
same,ED50,"mice; sc, s.c.",0.034 mg/kg
same,Kb,[1],1.23 nM
C=CCC1(C2=NCCN2)Cc2ccccc2N1C (centres unmarked) [Example 1D],inhibition at 1 µM,α2-adrenergic receptor,85%
same,ED50,"mice; po, p.o.",11.1 mg/kg
same,Kb,[1]; [11],110 nM
c1ccc(CN2c3ccccc3CC2C2=NCCN2)cc1 (centres unmarked) [Example 1E],Ki,α2-adrenergic receptor,2.3 nM
same,ED50,"mice; po, p.o.",0.051 mg/kg
same,ED50,"mice; sc, s.c.",0.18 mg/kg
same,Kb,[1]; [11],11.7 nM
CN1c2ccccc2CC1(C)C1=NCCN1 (centres unmarked) [Example 1F],Ki,α2-adrenergic receptor,3.39 nM
same,ED50,"mice; po, p.o.",8.8 mg/kg
same,Kb,[1],28.2 nM
CN1c2ccccc2CC1CC1=NCCN1 (centres unmarked) [Example 1G],Ki,α2-adrenergic receptor,355 nM
same,responders at 30 mg/kg,mice; [12],0%
CN1c2ccc(Cl)cc2CC1C1=NCCN1 (centres unmarked) [Example 1H],ED50,"mice; po, p.o.",1.5 mg/kg
same,Kb,[1],2.75 nM
CCCN1c2ccccc2CC1C1=NCCN1 (centres unmarked) [Example 1J],Kb,[1],1.74 nM
CN1c2c(Cl)cccc2CC1C1=NCCN1 (centres unmarked) [Example 1K],responders at 0.03 mg/kg,"mice; sc, read-out: % A, Antagonism of Clonidine Analgesia, 0.03 mg/kg s.c.",70%
same,responders at 1 mg/kg,mice; [4],100%
same,responders at 3 mg/kg,mice; [5],100%
same,responders at 10 mg/kg,mice; [6],100%
same,Kb,[1],1.58 nM
CCCCN1c2ccccc2CC1C1=NCCN1 (centres unmarked) [Example 1L],responders at 3 mg/kg,mice; [5],20%
same,responders at 5.5 mg/kg,"mice; sc, read-out: % A, Antagonism of Clonidine Analgesia, 5.5 mg/kg s.c.",100%
same,responders at 10 mg/kg,mice; [6],100%
same,Kb,[1],1.58 nM
C=CCN1c2ccccc2CC1C1=NCCN1 (centres unmarked) [Example 1M],ED50,"mice; po, p.o.",2.6 mg/kg
same,Kb,[1],0.851 nM
CCOCCN1c2ccccc2CC1C1=NCCN1 (centres unmarked) [Example 1N],ED50,"mice; po, p.o.",26.5 mg/kg
same,Kb,[1],15.5 nM
c1ccc2c(c1)CC(C1=NCCN1)N2 (centres unmarked) [Example 1O],ED50,"mice; po, p.o.",1.8 mg/kg
same,Kb,[1],6.92 nM
CN1c2ccc(Cc3ccccc3)cc2CC1C1=NCCN1 (centres unmarked) [Example 1P],ED50,"mice; sc, s.c.",11.3 mg/kg
same,Kb,[1]; [11],25.7 nM
c1ccc(CCN2c3ccccc3CC2C2=NCCN2)cc1 (centres unmarked) [Example 1Q],inhibition at 0.1 µM,[1]; [9],81%
same,inhibition at 0.5 µM,[1]; [10],94%
c1ccc(N2c3ccccc3CC2C2=NCCN2)cc1 (centres unmarked) [Example 1R],ED50,"mice; po, p.o.",19.8 mg/kg
same,inhibition at 0.1 µM,[1]; [13],100%
CN1c2c(Cl)cc(Cl)cc2CC1C1=NCCN1 (centres unmarked) [Example 1S],ED50,"mice; po, p.o.",60.1 mg/kg
same,Kb,[1],10 nM
c1ccc2c(c1)CCC(C1=NCCN1)N2 (centres unmarked) [Example 1U],ED50,"mice; po, p.o.",3.8 mg/kg
same,Kb,[1],9.33 nM
CN1c2ccccc2CCC1C1=NCCN1 (centres unmarked) [Example 1V],ED50,"mice; po, p.o.",2.6 mg/kg
same,Kb,[1],7.41 nM
c1ccc(C2CC(C3=NCCN3)Nc3ccccc32)cc1 (centres unmarked) [Example 1W],inhibition at 1 µM,α2-adrenergic receptor,44.6%
same,"% A, rat vas deferens","[1]; 0.1 nM, 0.0001 µM",3%
same,"% A, rat vas deferens","[1]; 1 nM, 0.001 µM",0% and 1%
same,inhibition at 0.0001 µM,"[1]; rat, 0.1 nM",2%
Cn1c(CC2=NCCN2)cc2ccccc21 [Example 1X],responders at 10 mg/kg,mice; [7],0%
same,responders at 30 mg/kg,mice; [8],10%
same,responders at 100 mg/kg,"mice; po, read-out: % A, Antagonism of Clonidine Analgesia, 100 mg/kg p.o.",50%
same,responders at 10 mg/kg,mice; [6],50%
same,responders at 30 mg/kg,mice; [12],60%
same,responders at 100 mg/kg,"mice; sc, read-out: % A, Antagonism of Clonidine Analgesia, 100 mg/kg s.c.",50%
same,Kb,[1],33.1 nM
Cn1c(C2=NCCN2)cc2ccccc21 [Example 1Y],inhibition at 1 µM,α2-adrenergic receptor,32.5%
same,inhibition at 0.1 µM,[1]; [13],3%
